Test results as given in patent US6610683B2, “Treatment of infectious disease using interleukin-1β-converting enzyme (ICE)/CED-3 family inhibitors” (IDUN Pharmaceuticals, Inc., priority 1996, dated 2003).
Residues, ends and D or L forms follow the SMILES beside them. *: point of attachment. Cbz = O=C(OCc1ccccc1)*; CH2F = FC*

Experiments:
granulocytes [1] = assay: Respiratory burst in isolated neutrophils measured by chemiluminescence (opsonized zymosan); type: cell-based; settings: FIG. 7
Procedure: Respiratory burst in isolated neutrophils measured by Chemiluminescence
Whole blood anticoagulated with Acid Citrate Dextrose (ACD) with a ratio of 1:5 ACD to blood was collected (150 ml).
Neutrophils were isolated as described above.
Opsonized zymosan was prepared by suspending 125 mg zymosan particles in 25 ml pooled human serum (5 mg/ml) and incubating them for 20 minutes at 37° C. Centrifuge the suspension and resuspend the particles in 7 ml of PBS (18 mg/ml) and stored on ice until use (vortex prior to pipetting).
50 ml of a 250 μM solution of Lucigenin (MW 510.5) was prepared by dissolving 6.4 mg of the solid in 50 ml of PBS-G (+Ca, Mg). 10 μl of PBS-G (+Ca, Mg) to the wells in a white 96 well plate.
50 μl of the 250 μM Lucigenin solution was added to the wells in a white 96 well plate.
Cell preparations were obatined from cell culture (concentration at time zero=5.0×10^6 cells/ml) with PBS-G (+Ca, Mg). 20 μl of the neutrophil suspension was suspended to the appropriate wells and the plate was incubated the plate at 37° C. for three minutes. 10 μl of the opsonized zymosan was added to the wells.
The plate was read on the luminometer (Labsystems Luminoskan, Needham Heights, Mass.) for 14 min. at 37° C. in the kinetic mode and record results using the software DeltaSoft.
The ability to undergo the respiratory burst is another measure of granulocyte viability. The respiratory burst is a physiological response of granulocytes to foreign stimuli such as bacteria. In this example, the method for inducing the respiratory burst utilized opsonized bacterial zymosan. The respiratory burst was measured via chemiluminescence.

[2] = system: granulocytes in whole blood; assay: Whole blood assay: survival of granulocytes by hypodiploid analysis via flow cytometry; type: cell-based; settings: time zero
Procedure: The following reagents were used:
anti-CD32-FITC monoclonal antibody obtained from Pharmingen.
25 Lysing Solution (10×Stock: 89.9 g NH4Cl;
(DPBS without calcium or magnesium obtained from Irivine Scientific. 2% fetal bovine serum in DPBS stored at 4° C. 50 μg/ml propidium iodide in DPBS sterile filtered and stored at 4° C.)
200 μl blood sample/2.8 ml 1×lysis solution in a 15 ml polypropylene conical tube.
Cap and invert to mix. Leave at room temperature for 3-5 minutes.
Centrifuge in a table-top Sorvall at 1200 rpm for 5 minutes at 4° C.
Aspirate supernate. Resuspend pellet in 200 μl/sample 2% FBS/DPBS. Add 20 μl/sample anti-CD32-FITC. Incubate 30 minutes on ice in the dark.
Add 5 ml/sample DPBS. Centrifuge at 1000 rpm for 5 minutes at 4° C.
Aspirate supernate. Resuspend pellet in1 ml/sample 2% FBS/DPBS.
Add 3 ml/sample ice-cold 95% EtOH dropwise while vortexing gently.
Incubate samples on ice in the dark for 30 minutes.
Centrifuge at 1000 rpm for 5 minutes at 4° C.
Resuspend each sample in 50 μl 5 mg/ml RN'ase. Transfer sample to 900 μl/sample […] Propidium Iodide in 12×75 mm Falcon polystyrene tubes.
Incubate on ice for 30 minutes.
Analyze samples by flow cytometry (argon laser) for forward and side scatter and fluorescence.
Survival of granulocytes in whole blood was measured by hypodiploid analysis in a similar fashion to isolated granulocytes via flow cytometry. […]

granulocytes [3] = assay: Granulocyte survival in culture, hypodiploid nuclei by propidium iodide flow cytometry; type: cell-based; settings: at 48 hours; FIG. 6
Procedure: Whole blood anticoagulated with Acid Citrate Dextrose (ACD) with a ratio of 1:5 ACD to blood was collected (˜100 ml).
Using polypropylene plastic ware, neutrophils are isolated as follows:
30 ml of the whole blood is added to 50 ml polypropylene centrifuge tubes containing 15 ml of 6% Dextran (in Saline). The blood is allowed to sediment for approximately 1 hour at room temperature.
The turbid straw colored layer harvested from the top of the cylinders into 50 ml conical polypropylene tubes. The blood cells were pelleted by centrifugation at 240×g (Sorvall centrifuge at 1200 rpm) for 12 min. at 4° C. with the brake on low. […]
The supernatant was aspirated and the neutrophil pellet resuspended in 4.0 ml cold PBS (w/o Ca, Mg) on ice. 10 μl of the neutrophil cell suspension was diluted with 990 μl of Trypan blue (1:100) and cells counted using a hemacytometer. The cell number and viability were determined. […]
Neutrophils were resuspended in hypotonic fluorochrome solution at a density of 5×10^6 cells/ml. Propidium iodide fluorescence of individual nuclei was evaluated in FL2 and measured on a logarithmic scale while gating on physical parameters in forward and side scatter to exlude cell debris.
At least 10,000 events per sample were collected and the results were evaluated relative to a non-apoptotic neutrophil population. […]

T-lymphocyte cell line = settings: cited from earlier work
ICE = molecular target: T1, ICE (Homo sapiens, UniProt P29466); settings: cited from earlier work
T1 sequence (P29466 120-297 limits assumed): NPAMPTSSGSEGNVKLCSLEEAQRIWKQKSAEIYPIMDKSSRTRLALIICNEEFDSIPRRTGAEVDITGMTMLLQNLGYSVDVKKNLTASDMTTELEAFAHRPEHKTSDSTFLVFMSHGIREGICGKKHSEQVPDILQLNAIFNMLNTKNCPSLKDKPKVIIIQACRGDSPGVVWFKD
T1 sequence (P29466 317-404 limits assumed): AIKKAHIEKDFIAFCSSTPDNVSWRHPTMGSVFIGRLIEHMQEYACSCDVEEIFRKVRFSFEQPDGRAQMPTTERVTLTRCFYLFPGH

mammary epithelial cells = settings: absence of extracellular matrix; cited from earlier work
motoneurons = settings: in vitro and in vivo; cited from earlier work
[4] = after granulocyte culture for 72 hours

## Cc1c(C(=O)N[C@H](C(=O)NC(CC(=O)O)C(=O)COC(=O)c2c(Cl)cccc2Cl)C(C)C)n(C)c2ccccc12 (stereo partly drawn) [Example 70, N-[N-(1,3-dimethyl-indole-2-carbonyl)-valinyl]-3-amino-5-(2,6-dichlorobenzoyl)oxy-4-oxo-pentanoic Acid]
Granulocytes [1]; [4]
  maintenance of the respiratory burst: partially maintained
Granulocytes [1]; for 48 hours
  maintenance of the respiratory burst: substantially maintained
[2]
  Percentage of diploid granulocytes in whole blood: 96%

## COC(=O)C[C@H](NC(=O)[C@H](C)NC(=O)[C@@H](NC(=O)OCc1ccccc1)C(C)C)C(=O)CF [zVADfmk] (Cbz-Val-Ala-Asp(OMe)-CH2F)
Granulocytes [1]; opsonized zymosan, chemiluminescence
  maintenance of the respiratory burst: did not maintain the respiratory burst
Granulocytes [3]
  effect on improving granulocyte survival: weak effect

## CC(=O)N[C@@H](CC(=O)O)C(=O)N[C@@H](CCC(=O)O)C(=O)N[C@H](C(=O)N[C@H](C=O)CC(=O)O)C(C)C [acetyl-DEVD-aldehyde]
T-lymphocyte cell line
  inhibition of anti-Fas induced apoptosis: inhibited

## CC(=O)NC(Cc1ccc(O)cc1)C(=O)NC(C(=O)NC(C)C(=O)NC(CC(=O)O)C(=O)C=[N+]=[N-])C(C)C (stereo not drawn) [AC-Tyr-Val-Ala-Asp-COCHN2]
ICE
  inhibition of the enzyme (ICE): potent, competitive, irreversible inhibitor

## CC(C)(C)OC(=O)N[C@@H](CC(=O)OCc1ccccc1)C(=O)CCl [Boc-D-(benzyl) chloromethylketone]
Mammary epithelial cells
  prevention of cell death of mammary epithelial cells: prevented

## CC(=O)N[C@@H](Cc1ccc(O)cc1)C(=O)N[C@H](C(=O)N[C@@H](C)C(=O)N[C@H](C=O)CC(=O)O)C(C)C [acetyl-YVAD-aldehyde]
motoneurons
  block of the death of motoneurons: blocked

## CC(=O)N[C@@H](Cc1ccc(O)cc1)C(=O)N[C@H](C(=O)N[C@@H](C)C(=O)N[C@@H](CC(=O)O)C(=O)CCl)C(C)C [acetyl-YVAD-chloromethylketone]
motoneurons
  block of the death of motoneurons: blocked

## Cc1c(C(=O)N[C@H](C(=O)NC(CC(=O)O)C(=O)CF)C(C)C)n(C)c2ccccc12 (stereo partly drawn) [Example 43, N-[(1,3-dimethylindole-2-carbonyl)Valinyl]-3-amino-4-Oxo-5-fluoropentanoic Acid]
Granulocytes [1]; [4]
  maintenance of the respiratory burst: partially maintained
Granulocytes [1]; for 48 hours
  maintenance of the respiratory burst: substantially maintained
